Measured values: US20210009557A1, “ACYCLIC CXCR4 INHIBITORS AND USES THEREOF” (X4 Pharmaceuticals, Inc., priority 2017, published 2021)

Columns and labels:
[1] = target: T1, Jurkat cells expressing CXCR4 (Homo sapiens, UniProt P61073); assay: Chemokine (CXCL12-AF647) binding inhibition assay; settings: CXCL12-AF647 25 ng/mL, read-out: IC50 CXCL-12 binding Jurkat
T1 construct: Jurkat cells expressing CXCR4; endogenous in cells; host or cells: Jurkat cells
Method: Jurkat cells expressing CXCR4 were washed once with assay buffer (Hanks' balanced salt solution with 20 mM HEPES buffer and 0.2% bovine serum albumin, pH 7.4) and then incubated for 15 min at room temperature with the test compounds diluted in assay buffer at dose-dependent concentrations. Subsequently, CXCL12-AF647 (25 ng/mL) was added to the compound-incubated cells. The cells were incubated for 30 min at room temperature. Thereafter, the cells were washed twice in assay buffer, fixed in 1% paraformaldehyde in PBS, and analyzed on the FL4 channel of a FACSCalibur flow cytometer equipped with a 635-nm red diode laser (Becton Dickinson, San Jose, Calif., USA).
The percentages of inhibition of CXCL12-AF647 binding were calculated according to the formula: [1−((MFI−MFINC)/(MFIPC−MFINC))]×100 where MFI is the mean fluorescence intensity of the cells incubated with CXCL12-AF647 in the presence of the inhibitor, MFINC is the mean fluorescence intensity measured in the negative control (i.e., autofluorescence of unlabeled cells), and MFIPC is the mean fluorescence intensity of the positive control (i.e., cells exposed to CXCL12-AF647 alone).

[2] = target: T2, CXCR-4 transfected U87 cell line (U87.CXCR4) (Homo sapiens, UniProt P61073); assay: Intracellular CXCL-12-induced calcium mobilization assay (FLIPR); format: cell-based; settings: U87.CXCR4 cells; CXCL-12 25-50 ng/mL; compounds added 15 minutes before; read-out: IC50 CXCL-12 Ca2+ flux U87.CXCR4+
T2 construct: expressed in transfected cells; host or cells: U87 cell line (U87.CXCR4)
T2 sequence (P61073 whole entry): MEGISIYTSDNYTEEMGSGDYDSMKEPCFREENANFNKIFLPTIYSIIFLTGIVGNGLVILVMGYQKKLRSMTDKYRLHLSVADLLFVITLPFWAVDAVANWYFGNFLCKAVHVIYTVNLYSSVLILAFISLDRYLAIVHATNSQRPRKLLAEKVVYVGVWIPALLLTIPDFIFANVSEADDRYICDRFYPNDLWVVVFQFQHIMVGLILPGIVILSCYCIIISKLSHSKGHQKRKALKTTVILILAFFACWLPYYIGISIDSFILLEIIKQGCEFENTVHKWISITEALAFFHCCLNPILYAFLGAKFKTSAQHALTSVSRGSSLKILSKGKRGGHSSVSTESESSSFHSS
Method: Intracellular calcium mobilization induced by chemokines orchemokine-derived peptides were evaluated using a calcium responsive fluorescent probe and a FLIPR system. The CXCR-4 transfected U87 cell line (U87.CXCR4) cells were seeded in gelatine-coated black-wall 96-well plates at 20,000 cells per well and incubated for 12 hours. Cells were then loaded with the fluorescent calcium probe Fluo-2 acetoxymethyl at 4 μM final concentration in assay buffer (Hanks' balanced salt solution with 20 mM HEPES buffer and 0.2% bovine serum albumin, pH 7.4) for 45 min at 37′C. The intracellular calcium mobilization induced by the CXCL-12 (25-50 ng/mL) was then measured at 37° C. by monitoring the fluorescence as a function of time in all the wells simultaneously using a fluorometric imaging plate reader (FLIPR Tetra, Molecular Devices).

in vitro = settings: human, Caco-2, pH 7.4
Method: The goal of this assay was to evaluate the intestinal absorption potential of drug candidates using Caco-2 cell lines.
Experimental Procedure • 1. Pre-warm Pre-warm HBSS Buffer in 37° C. water bath • 2. Sonicate Take compounds from −20° C., sonicate for a few minutes (no less than 1 minute) • 3. Solution preparation
For A-to-B Direction: • HBSS buffer with 0.3% DMSO and 5 μM LY: add 150 μL DMSO and 50 μL LY (5 mM) into 50 ml HBSS buffer (pH 7.4). • HBSS buffer with 0.1% DMSO and 5 μM LY: add 50 μL DMSO and 50 μL LY (5 mM) into 50 mL HBSS buffer (pH 7.4).
For B-to-A Direction: • HBSS buffer with 0.3% DMSO: add 150 μL DMSO into 50 ml HBSS buffer (pH 7.4). HBSS buffer with 0.1% DMSO: add 50 μL DMSO into 50 ml HBSS buffer (pH 7.4).
For A-to-B Direction: • Prepare HBSS buffer with 0.4% DMSO: add 200 μL DMSO into 50 ml HBSS buffer (pH 7.4).
For B-to-A Direction: • Prepare HBSS buffer with 0.4% DMSO and 5 μM LY: add 200 μL DMSO and 50 μL LY (5 mM) into 50 ml HBSS buffer (pH 7.4).
• 4. Measure TEER Take cell culture plate out of incubator, wash the cell monolayers with HBSS buffer, and then measure TEER values at Rm temperature. • 5. Centrifuge Centrifuge the compound solution (from step 3) at 4000 rpm for 5 min before loading to donor chambers. • 6. Dosing Add solution based on the volumes listed in the following table (make sure to take extra 100 μL of donor sample for T0 as Backup).
• 7. Apical LYTO samples To determine LY concentration in the apical chamber, take 100 μL sample from apical chambers into an opaque plate for LYTO. • 8. Pre-warm Pre-warm apical and basolateral plates at 37° C. for about 5 min, then begin transport by placing the apical plate onto basolateral plate. • 9. Incubation Keep the plates in incubator at 37° C. for 90 min. • 10.
• Prepare 1× solution: • 3 μL (20×)+57 μL of 0.4% DMSO HBSS+60 μL ACN with IS (Osalmid or Imipramine)—120 μL (1×) • 11. Transport termination Separate the apical plate from the basolateral plate after 90-min incubation. • 12. Measure LY Take 100 μL samples from basolateral plate to an opaque plate as LYT90. • 13. Measure LY concentrations for LYTO and LYT90 by Fluorometer (at excitation of 485 nm/emission of 535 nm). • 14.
Drug permeability: Papp=(VA/(Area×time))×([drug]accepter/(([drug]initial, donor)×Dilution Factor) • Where VA is the volume in the acceptor well, area is the surface area of the membrane and time is the total transport time in seconds.
For Millicell-24 Cell Culture Plates: surface area of the membrane=0.7 cm^2, VA=0.8 mL (A-to-B) or 0.4 mL (B-to-A)

T1 sequence (P61073 whole entry): as above

| SMILES | IC50 [1] | IC50 [2] | Papp A→B at 90 min, 10 μM (in vitro) | Papp B→A at 90 min, 10 μM (in vitro) | efflux ratio at 90 min, 10 μM (in vitro) |
| --- | --- | --- | --- | --- | --- |
| c1cnc2c(c1)CCC[C@@H]2N(CCC1CCCO1)Cc1nc2ccccc2[nH]1 (some centres unmarked) [Compound I-17] | 0.01 to 100 nM | ≥ 1000 nM |  |  |  |
| Cn1c(CN(CCC(N)=O)[C@H]2CCCc3cccnc32)nc2ccccc21 [Compound I-22] | 0.01 to 100 nM | 100 to 1000 nM | 5 to 10 ×10⁻⁶ cm/s | > 10 ×10⁻⁶ cm/s | 10 to 30 |
| Cc1cccnc1CN(CCc1ccccn1)Cc1ncccc1C [Compound I-4] | 0.01 to 100 nM | 100 to 1000 nM | > 10 ×10⁻⁶ cm/s | > 10 ×10⁻⁶ cm/s | 0.1 to 10 |
| Cc1cccnc1CN(CCc1cnc[nH]1)Cc1ncccc1C [Compound I-9] | 0.01 to 100 nM | 0.01 to 100 nM | < 5 ×10⁻⁶ cm/s | > 10 ×10⁻⁶ cm/s | 10 to 30 |
| CC(c1ccccn1)N(CCC(N)=O)Cc1ccccn1 (centres unmarked) [Compound I-11] | 100 to 1000 nM | ≥ 1000 nM | 5 to 10 ×10⁻⁶ cm/s | > 10 ×10⁻⁶ cm/s | 0.1 to 10 |
| Cc1cccnc1CN(CCC(N)=O)Cc1ncccc1Cl [Compound I-15] | 100 to 1000 nM | ≥ 1000 nM | > 10 ×10⁻⁶ cm/s | > 10 ×10⁻⁶ cm/s | 0.1 to 10 |
| Clc1cccnc1CN(CCc1c[nH]cn1)[C@H]1CCCc2cccnc21 [Compound I-27, (S)—N-(2-(1H-imidazol-4-yl)ethyl)-N-((3-chloropyridin-2-yl)methyl)-5,6,7,8-tetrahydroquinolin-8-amine] | 0.01 to 100 nM | ≥ 1000 nM | 5 to 10 ×10⁻⁶ cm/s | > 10 ×10⁻⁶ cm/s | 0.1 to 10 |
| Cc1cccnc1CN(CCc1ccccn1)Cc1ncccc1Cl [Compound I-5] | 0.01 to 100 nM | 100 to 1000 nM | > 10 ×10⁻⁶ cm/s | > 10 ×10⁻⁶ cm/s | 0.1 to 10 |
| NC(=O)CCN(Cc1nc2ccccc2[nH]1)[C@H]1CCCc2cccnc21 [Compound I-21, (S)-3-(((1H-benzo[d]imidazol-2-yl)methyl)(5,6,7,8-tetrahydroquinolin-8-yl)amino)propanamide] | 0.01 to 100 nM | 100 to 1000 nM | < 5 ×10⁻⁶ cm/s | > 10 ×10⁻⁶ cm/s | > 30 |
| CC(c1ccccn1)N(CCc1ccccn1)Cc1ccccn1 (centres unmarked) [Compound I-1, 2-(Pyridin-2-yl)-N-(1-(pyridin-2-yl)ethyl)-N-(pyridin-2-ylmethyl)ethan-1-amine] | 0.01 to 100 nM | ≥ 1000 nM |  |  |  |
| COCCCN(Cc1nc2ccccc2[nH]1)[C@H]1CCCc2cccnc21 [Compound I-18] | 0.01 to 100 nM | 100 to 1000 nM |  |  |  |
| CC(=O)NCCCN(Cc1ncccc1C)[C@H]1CCCc2cccnc21 [Compound I-29] | 0.01 to 100 nM | ≥ 1000 nM |  |  |  |

Next, values leading:

| IC50 [1] | IC50 [2] | Papp A→B at 90 min, 10 μM (in vitro) | Papp B→A at 90 min, 10 μM (in vitro) | efflux ratio at 90 min, 10 μM (in vitro) | SMILES |
| --- | --- | --- | --- | --- | --- |
| 0.01 to 100 nM | ≥ 1000 nM | < 5 ×10⁻⁶ cm/s | > 10 ×10⁻⁶ cm/s | > 30 | Cc1cccnc1CN(CCc1c[nH]cn1)Cc1nc2cc(F)ccc2n1C [Compound I-42] |
| 100 to 1000 nM | ≥ 1000 nM | 5 to 10 ×10⁻⁶ cm/s | > 10 ×10⁻⁶ cm/s | 0.1 to 10 | CC(C)c1cccnc1CN(CCc1cnc[nH]1)Cc1ncccc1C(C)C [Compound I-38] |
| 0.01 to 100 nM | ≥ 1000 nM | < 5 ×10⁻⁶ cm/s | > 10 ×10⁻⁶ cm/s | 0.1 to 10 | CC(C)c1cccnc1CN(CCC(N)=O)[C@H]1CCCc2cccnc21 [Compound I-48] |
| 0.01 to 100 nM | 100 to 1000 nM | > 10 ×10⁻⁶ cm/s | > 10 ×10⁻⁶ cm/s | 0.1 to 10 | CC(C)c1cccnc1CN(CCc1cnc[nH]1)Cc1ncccc1Cl [Compound I-35] |
| 0.01 to 100 nM | ≥ 1000 nM | < 5 ×10⁻⁶ cm/s | > 10 ×10⁻⁶ cm/s | 10 to 30 | Cc1cccnc1CN(CCc1c[nH]cn1)Cc1nc2cccc(F)c2n1C [Compound I-40] |
| 0.01 to 100 nM | 0.01 to 100 nM | 5 to 10 ×10⁻⁶ cm/s | > 10 ×10⁻⁶ cm/s | 0.1 to 10 | Clc1cccnc1CN(CCc1cnc[nH]1)Cc1nccc2ccccc12 [Compound I-37] |
| ≥ 1000 nM | ≥ 1000 nM | > 10 ×10⁻⁶ cm/s | > 10 ×10⁻⁶ cm/s | 0.1 to 10 | NC(=O)CCN(Cc1nccs1)[C@H]1CCCc2cccnc21 [Compound I-50] |
| 0.01 to 100 nM | 0.01 to 100 nM | 5 to 10 ×10⁻⁶ cm/s | > 10 ×10⁻⁶ cm/s | 0.1 to 10 | Cn1c(CN(CCc2c[nH]cn2)[C@H]2CCCc3cccnc32)nc2cccc(F)c21 [Compound I-44] |
| 0.01 to 100 nM | ≥ 1000 nM | 5 to 10 ×10⁻⁶ cm/s | > 10 ×10⁻⁶ cm/s | 0.1 to 10 | NC(=O)CCN(Cc1ncccc1-c1ccccc1)[C@H]1CCCc2cccnc21 [Compound I-51] |
| 0.01 to 100 nM | 100 to 1000 nM | < 5 ×10⁻⁶ cm/s | > 10 ×10⁻⁶ cm/s | > 30 | Cc1cccnc1CN(CCc1c[nH]cn1)Cc1nc2ccc(F)cc2n1C [Compound I-41] |
| 0.01 to 100 nM | 0.01 to 100 nM | < 5 ×10⁻⁶ cm/s | > 10 ×10⁻⁶ cm/s | 10 to 30 | Cc1cccnc1CN(CCc1cnc[nH]1)Cc1nccc2ccccc12 [Compound I-36] |
| 100 to 1000 nM | ≥ 1000 nM | > 10 ×10⁻⁶ cm/s | > 10 ×10⁻⁶ cm/s | 0.1 to 10 | Cc1cccnc1CN(CCc1cccc(O)n1)Cc1ncccc1C [Compound I-59] |
|  |  | > 10 ×10⁻⁶ cm/s | > 10 ×10⁻⁶ cm/s |  | COCCc1ccc(OCC(O)CNC(C)C)cc1 (centres unmarked) [Metoprolol, reference compound] |
|  |  |  |  | > 116 | CC[C@H]1OC(=O)[C@H](C)[C@@H](O[C@H]2C[C@@](C)(OC)[C@@H](O)[C@H](C)O2)[C@H](C)[C@@H](O[C@@H]2O[C@H](C)C[C@H](N(C)C)[C@H]2O)[C@](C)(O)C[C@@H](C)C(=O)[C@H](C)[C@@H](O)[C@]1(C)O [Erythromycin, reference compound] |
| 0.01 to 100 nM | 100 to 1000 nM |  |  |  | CC(=O)NCCN(Cc1ncccc1C)[C@H]1CCCc2cccnc21 [Compound I-30] |
